Source: US7303758B2 (Cordis Corporation, priority 2004, dated 2007)
pIC50: −log10 of the molar value.

What was measured:
[1] = In vivo release kinetics from EVA/BMA basecoat, porcine pharmacokinetics studies; details: basecoat 180 μg rapamycin, 180 μg mycophenolic acid, 240 μg EVA/BMA, with or without BMA topcoat
[2] = test system: non-synchronized cultured human coronary artery smooth muscle cells; test: Anti-proliferative activity of rapamycin with varying mycophenolic acid concentrations; assay type: cell-based; details: mycophenolic acid zero to one thousand nano molar, two percent fetal bovine serum
Text: The multiple curves represent various concentrations of mycophenolic acid ranging from zero to one thousand nano molar concentrations. […] This potentiation observed in cultured coronary artery smooth muscle cells preferably translates to an enhancement in anti-restenotic efficacy following vascular injury and a reduction in the required amount of either agent to achieve the desired anti-restenotic effect.

[3] = In vivo release kinetics from PVDF basecoat with PVDF topcoat, porcine pharmacokinetics studies; details: six hundred micro grams basecoat, two hundred micro grams topcoat
Text: The topcoat is two hundred micro grams.

[4] = test system: human coronary artery smooth muscle cell proliferation; test: In vitro cell culture study of coronary artery smooth muscle cell proliferation; assay type: cell-based
Text: FIG. 51 is a graph of the inhibition of coronary artery smooth muscle cells by trichostatin A in a cell culture study.

tumor cell lines = details: cited from earlier work

SMILES: COc1c(C)c2c(c(O)c1C/C=C(\C)CCC(=O)O)C(=O)OC2 [mycophenolic acid]
- in vivo release from EVA/BMA basecoat [1]: elutes more completely over a shorter duration than the rapamycin
- effect on anti-proliferative rapamycin dose response curve [2]: potentiates the anti-proliferative activity of rapamycin

SMILES: CO[C@H]1C[C@@H]2CC[C@@H](C)[C@@](O)(O2)C(=O)C(=O)N2CCCC[C@H]2C(=O)O[C@H]([C@H](C)C[C@@H]2CC[C@@H](O)[C@H](OC)C2)CC(=O)[C@H](C)/C=C(\C)[C@@H](O)[C@@H](OC)C(=O)[C@H](C)C[C@H](C)/C=C/C=C/C=C/1C [Rapamycin, rapamycin]
- in vivo release rate from PVDF basecoat with PVDF topcoat [3]: slower release rate than that of mycophenolic acid

SMILES: CC(/C=C/C(=O)NO)=C\[C@@H](C)C(=O)c1ccc(N(C)C)cc1 [trichostatin A]
- pIC50 ([4]; human coronary artery smooth muscle cells, read-out: anti-proliferative IC50): ~8.22
- inhibition of human coronary artery smooth muscle cell proliferation ([4]; in vitro cell culture): completely inhibit
- anti-proliferative IC50 (tumor cell lines): low nM range
